What follows are molecules tested on ATF4 luciferase reporter (human full-length ATF4 5'-UTR fused to firefly luciferase) in HEK293T cells (assay: ATF4-Luc assay (in vitro model of VWMD): HEK293T cells carrying ATF4 luciferase reporter, tunicamycin-treated). Details: Homo sapiens, HEK-293T, 1 μg/mL tunicamycin, 7 hours, One Glo luminescence.
Format: cell-based
Procedure, shortened: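 Reporter cells were stably generated by retroviral transduction and puromycin selection, then seeded at 30,000 cells/well. Next day, cells received 1 μg/mL tunicamycin with 200 nM test compound for 7 h, and luciferase luminescence was read with a one-step reagent. Values reported as EC50.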

Question: How did the EC50 turn out when `O=C(COc1ccc(Cl)c(F)c1)NC12CC(NC(=O)[C@@H]3C[C@H](O)c4ccccc4O3)(C1)C2` [Compound 270, (2S,4S)—N-{3-[2-(4-chloro-3-fluorophenoxy)acetamido]bicyclo[1.1.1]pentan-1-yl}-4-hydroxy-3,4-dihydro-2H-1-benzopyran-2-carboxamide] was run?
Answer: 50 to 250 nM

Question: `O=C(COc1ccc(F)c(F)c1)NC12CC(NC(=O)[C@H]3CC(=O)c4cc(F)c(F)cc4O3)(C1)C2` [Compound 271, (2R)—N-{3-[2-(3,4-difluorophenoxy)acetamido]bicyclo[1.1.1]pentan-1-yl}-6,7-difluoro-4-oxo-3,4-dihydro-2H-1-benzopyran-2-carboxamide] was tested. Which EC50 did it give?
Answer: 10 to 50 nM

Question: With `O=C(COc1ccc(F)c(F)c1)NC12CC(NC(=O)[C@H]3C[C@@H](O)c4cc(F)c(F)cc4O3)(C1)C2` [Compound 272, (2R,4R)—N-{3-[2-(3,4-difluorophenoxy)acetamido]bicyclo[1.1.1]pentan-1-yl}-6,7-difluoro-4-hydroxy-3,4-dihydro-2H-1-benzopyran-2-carboxamide] as the molecule, how does the EC50 read?
Answer: < 10 nM

Question: Which EC50 does the source give for `O=C(COc1ccc(F)c(F)c1)NC12CC(NC(=O)[C@@H]3C[C@H](O)c4cc(F)c(F)cc4O3)(C1)C2` [Compound 273, (2S,4S)—N-{3-[2-(3,4-difluorophenoxy)acetamido]bicyclo[1.1.1]pentan-1-yl}-6,7-difluoro-4-hydroxy-3,4-dihydro-2H-1-benzopyran-2-carboxamide] here?
Answer: 10 to 50 nM

Question: For `CCc1ncc(C(=O)NC23CCC(NC(=O)[C@H]4C[C@@H](O)c5cc(Cl)ccc5O4)(CC2)C[C@@H]3O)o1` [Compound 274, N-[(2S)-4-{[(2R,4R)-6-chloro-4-hydroxy-3,4-dihydro-2H-1-benzopyran-2-carbonyl]amino}-2-hydroxybicyclo[2.2.2]octan-1-yl]-2-ethyl-1,3-oxazole-5-carboxamide], which EC50 is on record?
Answer: 50 to 250 nM

Question: Which EC50 does the source give for `O=C(COc1ccc(F)c(F)c1)NC12CC(NC(=O)[C@H]3CC(=O)c4cc(Cl)ccc4O3)(C1)C2` [Compound 275, (2R)-6-chloro-N-{3-[2-(3,4-difluorophenoxy)acetamido]bicyclo[1.1.1]pentan-1-yl}-4-oxo-3,4-dihydro-2H-1-benzopyran-2-carboxamide] here?
Answer: < 10 nM

Question: `O=C(COc1ccc(F)c(F)c1)NC12CC(NC(=O)[C@@H]3CC(=O)c4cc(Cl)ccc4O3)(C1)C2` [Compound 276, (2S)-6-chloro-N-{3-[2-(3,4-difluorophenoxy)acetamido]bicyclo[1.1.1]pentan-1-yl}-4-oxo-3,4-dihydro-2H-1-benzopyran-2-carboxamide] was tested. Which EC50 did it give?
Answer: 10 to 50 nM

Question: How did the EC50 turn out when `O=C(COc1ccc(F)c(F)c1)NC12CC(NC(=O)[C@H]3C[C@@H](O)c4cc(Cl)ccc4O3)(C1)C2` [Compound 277, (2R,4R)-6-chloro-N-{3-[2-(3,4-difluorophenoxy)acetamido]bicyclo[1.1.1]pentan-1-yl}-4-hydroxy-3,4-dihydro-2H-1-benzopyran-2-carboxamide] was run?
Answer: < 10 nM

Question: With `O=C(COc1ccc(F)c(F)c1)NC12CC(NC(=O)[C@@H]3C[C@H](O)c4cc(Cl)ccc4O3)(C1)C2` [Compound 278, (2S,4S)-6-chloro-N-{3-[2-(3,4-difluorophenoxy)acetamido]bicyclo[1.1.1]pentan-1-yl}-4-hydroxy-3,4-dihydro-2H-1-benzopyran-2-carboxamide] as the molecule, how does the EC50 read?
Answer: 10 to 50 nM

Question: Which EC50 does the source give for `O=C(COc1ccc(Cl)c(F)c1)NC12CC(NC(=O)[C@@H]3C=Cc4cc(Cl)ccc4O3)(C1)C2` [Compound 279, (2S)-6-chloro-N-{3-[2-(4-chloro-3-fluorophenoxy)acetamido]bicyclo[1.1.1]pentan-1-yl}-2H-1-benzopyran-2-carboxamide] here?
Answer: < 10 nM

Question: With `Cc1cc(Cl)cc2c(=O)cc(C(=O)NC34CC(NC(=O)COc5ccc(Cl)c(F)c5)(C3)C4)oc12` [Compound 282, 6-chloro-N-{3-[2-(4-chloro-3-fluorophenoxy)acetamido]bicyclo[1.1.1]pentan-1-yl}-8-methyl-4-oxo-4H-1-benzopyran-2-carboxamide] as the molecule, how does the EC50 read?
Answer: > 2000 nM

Question: For `COc1ccc2c(=O)cc(C(=O)NC34CC(NC(=O)COc5ccc(Cl)c(F)c5)(C3)C4)oc2c1` [Compound 283, N-{3-[2-(4-chloro-3-fluorophenoxy)acetamido]bicyclo[1.1.1]pentan-1-yl}-7-methoxy-4-oxo-4H-1-benzopyran-2-carboxamide], which EC50 is on record?
Answer: 10 to 50 nM

Question: `Cc1ccc2c(=O)cc(C(=O)NC34CC(NC(=O)COc5ccc(Cl)c(F)c5)(C3)C4)oc2c1` [Compound 284, N-{3-[2-(4-chloro-3-fluorophenoxy)acetamido]bicyclo[1.1.1]pentan-1-yl}-7-methyl-4-oxo-4H-1-benzopyran-2-carboxamide] was tested. Which EC50 did it give?
Answer: 10 to 50 nM

Question: For `Cc1cc2oc(C(=O)NC34CC(NC(=O)COc5ccc(Cl)c(F)c5)(C3)C4)cc(=O)c2cc1C` [Compound 285, N-{3-[2-(4-chloro-3-fluorophenoxy)acetamido]bicyclo[1.1.1]pentan-1-yl}-6,7-dimethyl-4-oxo-4H-1-benzopyran-2-carboxamide], which EC50 is on record?
Answer: < 10 nM

Question: For `O=C(COc1ccc(Cl)c(F)c1)NC12CC(NC(=O)c3cc(=O)c4ccc(OC(F)F)cc4o3)(C1)C2` [Compound 286, N-{3-[2-(4-chloro-3-fluorophenoxy)acetamido]bicyclo[1.1.1]pentan-1-yl}-7-(difluoromethoxy)-4-oxo-4H-1-benzopyran-2-carboxamide], which EC50 is on record?
Answer: 50 to 250 nM

Question: With `COc1ccc2oc(C(=O)NC34CC(NC(=O)COc5ccc(Cl)c(F)c5)(C3)C4)cc(=O)c2c1` [Compound 287, N-{3-[2-(4-chloro-3-fluorophenoxy)acetamido]bicyclo[1.1.1]pentan-1-yl}-6-methoxy-4-oxo-4H-1-benzopyran-2-carboxamide] as the molecule, how does the EC50 read?
Answer: 50 to 250 nM

Question: How did the EC50 turn out when `O=C(COc1ccc(Cl)c(F)c1)NC12CC(NC(=O)c3cc(=O)c4cc(Cl)cc(Cl)c4o3)(C1)C2` [Compound 289, 6,8-dichloro-N-{3-[2-(4-chloro-3-fluorophenoxy)acetamido]bicyclo[1.1.1]pentan-1-yl}-4-oxo-4H-1-benzopyran-2-carboxamide] was run?
Answer: 500 to 2000 nM

Question: With `CC(C)c1ccc2oc(C(=O)NC34CC(NC(=O)COc5ccc(Cl)c(F)c5)(C3)C4)cc(=O)c2c1` [Compound 290, N-{3-[2-(4-chloro-3-fluorophenoxy)acetamido]bicyclo[1.1.1]pentan-1-yl}-4-oxo-6-(propan-2-yl)-4H-1-benzopyran-2-carboxamide] as the molecule, how does the EC50 read?
Answer: 10 to 50 nM

Question: For `O=C(COc1ccc(Cl)c(F)c1)NC12CC(NC(=O)c3cc(=O)c4ccc5c(c4o3)OCO5)(C1)C2` [Compound 291, N-{3-[2-(4-chloro-3-fluorophenoxy)acetamido]bicyclo[1.1.1]pentan-1-yl}-6-oxo-2H,6H-[1,3]dioxolo[4,5-h][1]benzopyran-8-carboxamide], which EC50 is on record?
Answer: 50 to 250 nM

Question: Which EC50 does the source give for `O=C(COc1ccc(Cl)c(F)c1)NC12CC(NC(=O)c3cc(=O)c4cc(F)cc(F)c4o3)(C1)C2` [Compound 292, N-{3-[2-(4-chloro-3-fluorophenoxy)acetamido]bicyclo[1.1.1]pentan-1-yl}-6,8-difluoro-4-oxo-4H-1-benzopyran-2-carboxamide] here?
Answer: 50 to 250 nM

Question: `O=C(COc1ccc(Cl)c(F)c1)NC12CC(NC(=O)c3cc(=O)c4cccc(Cl)c4o3)(C1)C2` [Compound 294, 8-chloro-N-{3-[2-(4-chloro-3-fluorophenoxy)acetamido]bicyclo[1.1.1]pentan-1-yl}-4-oxo-4H-1-benzopyran-2-carboxamide] was tested. Which EC50 did it give?
Answer: 500 to 2000 nM
